Values of other authors, collected in patent US6686348B2, “Metalloprotease inhibitors” (Les Laboratoires Servier, priority 2000, dated 2004).

Test system: ovarian cancers
Conditions: Becket et al., DDT 1996

CNC(=O)[C@H](Cc1ccccc1)NC(=O)[C@H](CC(C)C)[C@H](CSc1cccs1)C(=O)NO [BB94]
anti-tumour activity in clinical use: active against ovarian cancers
